Data reported in US20230312528A1, “2-OXO-IMIDAZOLIDINE-4-CARBOXAMIDES AS NAV1.8 INHIBITORS” (Merck Sharp & Dohme LLC, priority 2020, published 2023).

Target: human NaV1.8 (Homo sapiens (Human), UniProt Q9Y5Y9)
Assay: Nav1.8 Qube automated patch-clamp assay
Format: cell-based
Settings: human NaV1.8 stably expressed in HEK 293 cells; automated 384-well patch-clamp; resting or inactivated state not specified
Procedure, shortened: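 IC50 values from Hill-equation fits of offline percent inhibition: the 1st pulse gave resting and the 10th pulse inactivated-state inhibition. Stimulus was a 10 s, 1 Hz train to 10 mV (holding −90 mV, −67 mV interpulse) applied at room temperature to HEK293 cells stably expressing human NaV1.8 (Qube).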

human NaV1.8, sequence (Q9Y5Y9 whole entry): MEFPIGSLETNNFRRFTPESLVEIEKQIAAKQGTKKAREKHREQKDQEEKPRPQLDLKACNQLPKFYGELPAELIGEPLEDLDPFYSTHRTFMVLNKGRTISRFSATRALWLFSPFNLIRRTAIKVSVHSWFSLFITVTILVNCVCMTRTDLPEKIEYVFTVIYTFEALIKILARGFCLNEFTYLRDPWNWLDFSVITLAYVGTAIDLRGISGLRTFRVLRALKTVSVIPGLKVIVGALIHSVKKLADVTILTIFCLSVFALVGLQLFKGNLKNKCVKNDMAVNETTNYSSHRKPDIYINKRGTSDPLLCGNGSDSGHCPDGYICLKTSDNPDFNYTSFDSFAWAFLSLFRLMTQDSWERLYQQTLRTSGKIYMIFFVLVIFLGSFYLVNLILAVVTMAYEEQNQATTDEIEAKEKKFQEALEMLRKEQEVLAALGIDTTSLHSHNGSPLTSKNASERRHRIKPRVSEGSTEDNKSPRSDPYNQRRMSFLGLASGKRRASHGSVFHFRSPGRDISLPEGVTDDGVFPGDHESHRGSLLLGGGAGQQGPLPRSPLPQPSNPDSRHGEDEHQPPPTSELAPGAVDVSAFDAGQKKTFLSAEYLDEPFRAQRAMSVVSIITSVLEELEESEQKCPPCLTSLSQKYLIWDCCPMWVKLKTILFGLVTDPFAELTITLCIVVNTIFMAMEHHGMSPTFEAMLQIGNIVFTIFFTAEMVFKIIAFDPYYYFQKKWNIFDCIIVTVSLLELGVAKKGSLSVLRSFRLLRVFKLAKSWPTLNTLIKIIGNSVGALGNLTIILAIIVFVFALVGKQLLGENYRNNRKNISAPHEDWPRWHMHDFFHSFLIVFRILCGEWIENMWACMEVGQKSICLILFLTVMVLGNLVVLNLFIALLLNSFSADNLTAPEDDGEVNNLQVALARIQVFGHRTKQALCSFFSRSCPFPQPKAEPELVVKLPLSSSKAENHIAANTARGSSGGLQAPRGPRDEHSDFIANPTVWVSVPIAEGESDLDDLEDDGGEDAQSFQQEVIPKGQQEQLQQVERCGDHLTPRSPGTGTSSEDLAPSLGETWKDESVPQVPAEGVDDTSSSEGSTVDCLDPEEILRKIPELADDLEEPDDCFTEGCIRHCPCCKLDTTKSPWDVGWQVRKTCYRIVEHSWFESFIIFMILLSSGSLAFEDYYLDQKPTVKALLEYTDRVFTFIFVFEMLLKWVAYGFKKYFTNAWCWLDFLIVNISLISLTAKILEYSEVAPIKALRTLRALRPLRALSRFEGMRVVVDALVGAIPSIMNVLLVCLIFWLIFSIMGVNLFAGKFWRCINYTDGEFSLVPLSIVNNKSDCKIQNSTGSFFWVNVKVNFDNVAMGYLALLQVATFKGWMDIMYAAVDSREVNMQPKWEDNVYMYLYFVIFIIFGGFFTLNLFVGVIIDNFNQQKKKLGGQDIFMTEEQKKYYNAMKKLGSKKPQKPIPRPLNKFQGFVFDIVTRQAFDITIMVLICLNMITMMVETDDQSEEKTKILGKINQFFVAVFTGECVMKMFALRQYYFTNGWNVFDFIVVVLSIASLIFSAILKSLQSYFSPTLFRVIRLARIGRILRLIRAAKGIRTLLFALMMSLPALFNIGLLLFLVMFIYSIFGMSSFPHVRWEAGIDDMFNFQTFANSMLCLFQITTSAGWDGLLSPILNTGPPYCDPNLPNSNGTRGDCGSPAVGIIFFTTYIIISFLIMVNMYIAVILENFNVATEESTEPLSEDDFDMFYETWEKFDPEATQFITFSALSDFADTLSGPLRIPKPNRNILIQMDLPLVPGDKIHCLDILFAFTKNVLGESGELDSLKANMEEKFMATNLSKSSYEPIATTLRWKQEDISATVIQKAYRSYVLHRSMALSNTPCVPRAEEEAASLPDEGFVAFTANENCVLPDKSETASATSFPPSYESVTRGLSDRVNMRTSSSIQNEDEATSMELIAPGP

Row | SMILES | IC50
1 | O=C1NC[C@@H](C(=O)NC(c2ccc(OCC(F)(F)F)nn2)c2ccc(F)c(Cl)c2F)N1 (single isomer, unassigned) [Example 50A, (4S)—N—((R or S)-(3-chloro-2,4-difluorophenyl)(6-(2,2,2-trifluoroethoxy)-pyridazin-3-yl)methyl)-2-oxoimidazolidine-4-carboxamide] | 45 nM
2 | O=C1NC[C@@H](C(=O)NC(c2ccc(OCC(F)(F)F)nn2)c2ccc(F)c(Cl)c2F)N1 (single isomer, unassigned) [Example 50B, (4S)—N—((R or S)-(3-chloro-2,4-difluorophenyl)(6-(2,2,2-trifluoroethoxy)pyridazin-3-yl)methyl)-2-oxoimidazolidine-4-carboxamide] | 206 nM
3 | O=C1NC[C@@H](C(=O)NC(c2cnc(OCC(F)(F)F)cn2)c2ccc(F)c(Cl)c2F)N1 (single isomer, unassigned) [Example 51A, N—((R or S)-(3-chloro-2,4-difluorophenyl)(5-(2,2,2-trifluoroethoxy)pyrazin-2-yl)methyl)-2-oxoimidazolidine-4-carboxamide] | 9.2 nM
4 | O=C1NC[C@@H](C(=O)NC(c2cnc(OCC(F)(F)F)cn2)c2ccc(F)c(Cl)c2F)N1 (single isomer, unassigned) [Example 51B, N—((R or S)-(3-chloro-2,4-difluorophenyl)(5-(2,2,2-trifluoroethoxy)pyrazin-2-yl)methyl)-2-oxoimidazolidine-4-carboxamide] | 166 nM
5 | O=C1NC[C@@H](C(=O)NC(CCc2ccc(Cl)cc2)c2ccc(F)c(Cl)c2F)N1 (single isomer, unassigned) [Example 52A, (4S)—N—((R or S)-1-(3-chloro-2,4-difluorophenyl)-3-(4-chlorophenyl)propyl)-2-oxoimidazolidine-4-carboxamide] | 46 nM
6 | O=C1NC[C@@H](C(=O)NC(CCc2ccc(Cl)cc2)c2ccc(F)c(Cl)c2F)N1 (single isomer, unassigned) [Example 52B, (4S)—N—((R or S)-1-(3-chloro-2,4-difluorophenyl)-3-(4-chlorophenyl)propyl)-2-oxoimidazolidine-4-carboxamide] | 4.3 nM
7 | O=C1NC[C@@H](C(=O)NC(CC2CCCCC2)c2ccc(F)c(Cl)c2F)N1 (single isomer, unassigned) [Example 54A, (S)-N-((R or S)-1-(3-chloro-2,4-difluorophenyl)-2-cyclohexylethyl)-2-oxoimidazolidine-4-carboxamide] | 3.2 nM
8 | O=C1NC[C@@H](C(=O)NC(CC2CCCCC2)c2ccc(F)c(Cl)c2F)N1 (single isomer, unassigned) [Example 54B, (S)-N-((R or S)-1-(3-chloro-2,4-difluorophenyl)-2-cyclohexylethyl)-2-oxoimidazolidine-4-carboxamide] | 50 nM
9 | O=C1NC[C@@H](C(=O)NC(c2cnc(OC(F)F)nc2)c2ccc(F)c(Cl)c2F)N1 (single isomer, unassigned) [Example 55A, (4S)—N—((R or S)-(3-chloro-2,4-difluorophenyl)(2-(difluoromethoxy)pyrimidin-5-yl)methyl)-2-oxoimidazolidine-4-carboxamide] | 79 nM
10 | O=C1NC[C@@H](C(=O)NC(c2cnc(C(F)(F)F)c(Cl)c2)c2ccc(Cl)c(C(F)(F)F)n2)N1 (single isomer, unassigned) [Example 56A, (S)-N-((R or S)-(5-chloro-6-(trifluoromethyl)pyridin-2-yl)(5-chloro-6-(trifluoromethyl)pyridin-3-yl)methyl)-2-oxoimidazolidine-4-carboxamide] | 2.5 nM
11 | O=C1NC[C@@H](C(=O)NC(c2cnc(C(F)(F)F)c(Cl)c2)c2ccc(Cl)c(C(F)(F)F)n2)N1 (single isomer, unassigned) [Example 56B, (S)-N-((R or S)-(5-chloro-6-(trifluoromethyl)pyridin-2-yl)(5-chloro-6-(trifluoromethyl)pyridin-3-yl)methyl)-2-oxoimidazolidine-4-carboxamide] | 4.5 nM
12 | N#Cc1cc(C(NC(=O)[C@@H]2CNC(=O)N2)c2ccc(OC(F)(F)F)cc2)ccc1Cl (single isomer, unassigned) [Example 57A, (S)-N-((R or S)-(4-chloro-3-cyanophenyl)(4-(trifluoromethoxy)phenyl)methyl)-2-oxoimidazolidine-4-carboxamide] | 3.5 nM
13 | N#Cc1cc(C(NC(=O)[C@@H]2CNC(=O)N2)c2ccc(OC(F)(F)F)cc2)ccc1Cl (single isomer, unassigned) [Example 57B, (S)-N-((R or S)-(4-chloro-3-cyanophenyl)(4-(trifluoromethoxy)phenyl)methyl)-2-oxoimidazolidine-4-carboxamide] | 2.4 nM
14 | O=C1NC[C@@H](C(=O)NC(c2ccc(F)c(Cl)c2F)C2CCCCN2CC(F)(F)F)N1 (single isomer, unassigned) [Example 58A, (S)-N-((R or S)-(3-chloro-2,4-difluorophenyl) ((R or S)-1-(2,2,2-trifluoroethyl)piperidin-2-yl)methyl)-2-oxoimidazolidine-4-carboxamide] | 2010 nM
15 | O=C1NC[C@@H](C(=O)NC(c2ccc(F)c(Cl)c2F)C2CCCCN2CC(F)(F)F)N1 (single isomer, unassigned) [Example 58B, (S)-N-((R or S)-(3-chloro-2,4-difluorophenyl) ((R or S)-1-(2,2,2-trifluoroethyl)piperidin-2-yl)methyl)-2-oxoimidazolidine-4-carboxamide] | 35 nM
16 | O=C1NC[C@@H](C(=O)NC(c2ccc(F)c(Cl)c2F)C2CCCCN2CC(F)(F)F)N1 (single isomer, unassigned) [Example 58C, (S)-N-((R or S)-(3-chloro-2,4-difluorophenyl) ((R or S)-1-(2,2,2-trifluoroethyl)piperidin-2-yl)methyl)-2-oxoimidazolidine-4-carboxamide] | 130 nM
17 | O=C1NC[C@@H](C(=O)NC(c2ccc(F)c(Cl)c2F)C2CCCCN2CC(F)(F)F)N1 (single isomer, unassigned) [Example 58D, (S)-N-((R or S)-(3-chloro-2,4-difluorophenyl) ((R or S)-1-(2,2,2-trifluoroethyl)piperidin-2-yl)methyl)-2-oxoimidazolidine-4-carboxamide] | 787 nM
18 | O=C1NC[C@@H](C(=O)NC(c2ccc(Cl)cc2)c2cc(C(F)(F)F)c(F)cn2)N1 (single isomer, unassigned) [Example 59A, (S)-N-((R or S)-(4-chlorophenyl)(5-fluoro-4-(trifluoromethyl)pyridin-2-yl)methyl)-2-oxoimidazolidine-4-carboxamide] | 44 nM
19 | O=C1NC[C@@H](C(=O)NC(c2ccc(Cl)cc2)c2cc(C(F)(F)F)c(F)cn2)N1 (single isomer, unassigned) [Example 59B, (S)-N-((R or S)-(4-chlorophenyl)(5-fluoro-4-(trifluoromethyl)pyridin-2-yl)methyl)-2-oxo-imidazolidine-4-carboxamide] | 62 nM
20 | N#Cc1ccc(C(NC(=O)[C@@H]2CNC(=O)N2)c2ccc(Cl)c(C(F)(F)F)c2)cc1 (single isomer, unassigned) [Example 60A, (S)-N-((R or S)-(4-chloro-3-(trifluoromethyl)-phenyl)(4-cyanophenyl)-methyl)-2-oxo-imidazolidine-4-carboxamide] | 3.1 nM
21 | N#Cc1ccc(C(NC(=O)[C@@H]2CNC(=O)N2)c2ccc(Cl)c(C(F)(F)F)c2)cc1 (single isomer, unassigned) [Example 60B, (S)-N-((R or S)-(4-chloro-3-(trifluoromethyl)-phenyl)(4-cyanophenyl)-methyl)-2-oxo-imidazolidine-4-carboxamide] | 3.8 nM
22 | O=C1NC[C@@H](C(=O)NC(c2ccc(F)c(Cl)c2)c2ccc(Cl)c(C(F)(F)F)n2)N1 (single isomer, unassigned) [Example 62A, (S)-N-((R or S)-(3-chloro-4-fluorophenyl)(5-chloro-6-(trifluoromethyl)pyridin-2-yl)methyl)-2-oxoimidazolidine-4-carboxamide] | 8 nM
23 | O=C1NC[C@@H](C(=O)NC(c2ccc(F)c(Cl)c2)c2ccc(Cl)c(C(F)(F)F)n2)N1 (single isomer, unassigned) [Example 62B, (S)-N-((R or S)-(3-chloro-4-fluorophenyl)(5-chloro-6-(trifluoromethyl)pyridin-2-yl)methyl)-2-oxoimidazolidine-4-carboxamide] | 0.4 nM
24 | O=C1NC[C@@H](C(=O)NC(c2ccc(F)c(C(F)F)n2)c2ccc(F)c(Cl)c2F)N1 (single isomer, unassigned) [Example 63A, (S)-N-((R or S)-(3-chloro-2,4-difluorophenyl)(6-(difluoromethyl)-5-fluoropyridin-2-yl)methyl)-2-oxoimidazolidine-4-carboxamide] | 4.2 nM
25 | O=C1NC[C@@H](C(=O)NC(c2ccc(F)c(C(F)F)n2)c2ccc(F)c(Cl)c2F)N1 (single isomer, unassigned) [Example 63B, (S)-N-((R or S)-(3-chloro-2,4-difluorophenyl)(6-(difluoromethyl)-5-fluoropyridin-2-yl)methyl)-2-oxoimidazolidine-4-carboxamide] | 16 nM
26 | O=C1NC[C@@H](C(=O)NC(c2cnc(OC(F)F)nc2)c2ccc(F)c(Cl)c2F)N1 (single isomer, unassigned) [Example 64A, (S)-N-((R or S)-(3-chloro-2,4-difluorophenyl)(2-(difluoromethoxy)pyrimidin-5-yl)methyl)-2-oxoimidazolidine-4-carboxamide] | 79 nM
27 | O=C1NC[C@@H](C(=O)NC(c2cnc(OC(F)F)nc2)c2ccc(F)c(Cl)c2F)N1 (single isomer, unassigned) [Example 64B, (S)-N-((R or S)-(3-chloro-2,4-difluorophenyl)(2-(difluoromethoxy)pyrimidin-5-yl)methyl)-2-oxoimidazolidine-4-carboxamide] | 805 nM
